Experimental data from publication PMC9481151, “Discovery of new symmetrical and asymmetrical nitrile-containing 1,4-dihydropyridine derivatives as dual kinases and P-glycoprotein inhibitors: synthesis, in vitro assays, and in silico studies” (Journal of Enzyme Inhibition and Medicinal Chemistry, 2022).

Columns and labels:
CCRF-CEM = test: NCI single dose (10 µM) SRB screen; type: cell-based, human; details: leukaemia, 48 h
HL-60(TB) = test: NCI single dose (10 µM) SRB screen; type: cell-based, human; details: leukaemia, 48 h
K-562 = test: NCI single dose (10 µM) SRB screen; type: cell-based, human; details: leukaemia, 48 h
MOLT-4 = test: NCI single dose (10 µM) SRB screen; type: cell-based, human; details: leukaemia, 48 h
RPMI-8226 = test: NCI single dose (10 µM) SRB screen; type: cell-based, human; details: leukaemia, 48 h
SR = test: NCI single dose (10 µM) SRB screen; type: cell-based, human; details: leukaemia, 48 h
A549/ATCC = test: NCI single dose (10 µM) SRB screen; type: cell-based, human; details: non-small cell lung cancer, 48 h
EKVX = test: NCI single dose (10 µM) SRB screen; type: cell-based, human; details: non-small cell lung cancer, 48 h
HOP-62 = test: NCI single dose (10 µM) SRB screen; type: cell-based, human; details: non-small cell lung cancer, 48 h
HOP-92 = test: NCI single dose (10 µM) SRB screen; type: cell-based, human; details: non-small cell lung cancer, 48 h
NCI-H226 = test: NCI single dose (10 µM) SRB screen; type: cell-based, human; details: non-small cell lung cancer, 48 h
NCI-H23 = test: NCI single dose (10 µM) SRB screen; type: cell-based, human; details: non-small cell lung cancer, 48 h
NCI-H322M = test: NCI single dose (10 µM) SRB screen; type: cell-based; details: non-small cell lung cancer, 48 h
NCI-H460 = test: NCI single dose (10 µM) SRB screen; type: cell-based, human; details: non-small cell lung cancer, 48 h
NCI-H522 = test: NCI single dose (10 µM) SRB screen; type: cell-based, human; details: non-small cell lung cancer, 48 h
COLO 205 = test: NCI single dose (10 µM) SRB screen; type: cell-based, human; details: colon cancer, 48 h
HCC-2998 = test: NCI single dose (10 µM) SRB screen; type: cell-based, human; details: colon cancer, 48 h
HCT-116 = test: NCI single dose (10 µM) SRB screen; type: cell-based, human; details: colon cancer, 48 h
HCT-15 = test: NCI single dose (10 µM) SRB screen; type: cell-based, human; details: colon cancer, 48 h
HT29 = test: NCI single dose (10 µM) SRB screen; type: cell-based, human; details: colon cancer, 48 h
KM12 = test: NCI single dose (10 µM) SRB screen; type: cell-based, human; details: colon cancer, 48 h
SW-620 = test: NCI single dose (10 µM) SRB screen; type: cell-based, human; details: colon cancer, 48 h
SF-268 = test: NCI single dose (10 µM) SRB screen; type: cell-based, human; details: CNS cancer, 48 h
SF-295 = test: NCI single dose (10 µM) SRB screen; type: cell-based, human; details: CNS cancer, 48 h
SF-539 = test: NCI single dose (10 µM) SRB screen; type: cell-based, human; details: CNS cancer, 48 h
SNB-19 = test: NCI single dose (10 µM) SRB screen; type: cell-based, human; details: CNS cancer, 48 h
SNB-75 = test: NCI single dose (10 µM) SRB screen; type: cell-based, human; details: CNS cancer, 48 h
U251 = test: NCI single dose (10 µM) SRB screen; type: cell-based, human; details: CNS cancer, 48 h
LOX IMVI = test: NCI single dose (10 µM) SRB screen; type: cell-based, human; details: melanoma, 48 h
MALME-3M = test: NCI single dose (10 µM) SRB screen; type: cell-based, human; details: melanoma, 48 h
M14 = test: NCI single dose (10 µM) SRB screen; type: cell-based, human; details: melanoma, 48 h
MDA-MB-435 = test: NCI single dose (10 µM) SRB screen; type: cell-based, human; details: melanoma, 48 h
SK-MEL-2 = test: NCI single dose (10 µM) SRB screen; type: cell-based, human; details: melanoma, 48 h
SK-MEL-28 = test: NCI single dose (10 µM) SRB screen; type: cell-based, human; details: melanoma, 48 h
SK-MEL-5 = test: NCI single dose (10 µM) SRB screen; type: cell-based, human; details: melanoma, 48 h
UACC-257 = test: NCI single dose (10 µM) SRB screen; type: cell-based, human; details: melanoma, 48 h
UACC-62 = test: NCI single dose (10 µM) SRB screen; type: cell-based, human; details: melanoma, 48 h
IGROV1 = test: NCI single dose (10 µM) SRB screen; type: cell-based, human; details: ovarian cancer, 48 h
OVCAR-3 = test: NCI single dose (10 µM) SRB screen; type: cell-based, human; details: ovarian cancer, 48 h
OVCAR-4 = test: NCI single dose (10 µM) SRB screen; type: cell-based, human; details: ovarian cancer, 48 h
OVCAR-5 = test: NCI single dose (10 µM) SRB screen; type: cell-based, human; details: ovarian cancer, 48 h
OVCAR-8 = test: NCI single dose (10 µM) SRB screen; type: cell-based, human; details: ovarian cancer, 48 h
NCI/ADR-RES = test: NCI single dose (10 µM) SRB screen; type: cell-based, human; details: ovarian cancer, 48 h
SK-OV-3 = test: NCI single dose (10 µM) SRB screen; type: cell-based, human; details: ovarian cancer, 48 h
786-0 = test: NCI single dose (10 µM) SRB screen; type: cell-based, human; details: renal cancer, 48 h
A498 = test: NCI single dose (10 µM) SRB screen; type: cell-based, human; details: renal cancer, 48 h
ACHN = test: NCI single dose (10 µM) SRB screen; type: cell-based, human; details: renal cancer, 48 h
CAKI-1 = test: NCI single dose (10 µM) SRB screen; type: cell-based, human; details: renal cancer, 48 h
RXF 393 = test: NCI single dose (10 µM) SRB screen; type: cell-based, human; details: renal cancer, 48 h
SN12C = test: NCI single dose (10 µM) SRB screen; type: cell-based, human; details: renal cancer, 48 h
TK-10 = test: NCI single dose (10 µM) SRB screen; type: cell-based, human; details: renal cancer, 48 h
UO-31 = test: NCI single dose (10 µM) SRB screen; type: cell-based, human; details: renal cancer, 48 h
PC-3 = test: NCI single dose (10 µM) SRB screen; type: cell-based, human; details: prostate cancer, 48 h
DU-145 = test: NCI single dose (10 µM) SRB screen; type: cell-based, human; details: prostate cancer, 48 h
MCF7 = test: NCI single dose (10 µM) SRB screen; type: cell-based, human; details: breast cancer, 48 h
MDA-MB-231 = test: NCI single dose (10 µM) SRB screen; type: cell-based, human; details: breast cancer, 48 h
HS578T = test: NCI single dose (10 µM) SRB screen; type: cell-based, human; details: breast cancer, 48 h
BT-549 = test: NCI single dose (10 µM) SRB screen; type: cell-based, human; details: breast cancer, 48 h
T-47D = test: NCI single dose (10 µM) SRB screen; type: cell-based, human; details: breast cancer, 48 h
MDA-MB-468 = test: NCI single dose (10 µM) SRB screen; type: cell-based, human; details: breast cancer, 48 h
NCI 60 cancer cell lines = test: NCI single dose (10 µM) SRB screen, mean over panel; type: cell-based, human; details: mean over 60 cell lines, 48 h
Staphylococcus aureus = test: Agar well diffusion method; details: relative to ciprofloxacin
Bacillus subtilis = test: Agar well diffusion method; details: relative to ciprofloxacin
Escherichia coli = test: Agar well diffusion method; details: relative to ciprofloxacin
Pseudomonas aeruginosa = test: Agar well diffusion method; details: relative to ciprofloxacin
Candida albicans = test: Agar well diffusion method; details: relative to clotrimazole
Aspergillus flavus = test: Agar well diffusion method

COC(=O)C1=C(C)NC(C)=C(C(=O)OC(C)(C)C)C1c1cccc(C#N)c1 (racemic) [Compound 2c, (±)-3-Tert-butyl 5-Methyl 4-(3-cyanophenyl)-2,6-dimethyl-1,4-dihydropyridine-3,5-dicarboxylate]
GI% CCRF-CEM (CCRF-CEM): – (Only GI% ≥ 10 are shown)
GI% HL-60(TB) (HL-60(TB)): – (Only GI% ≥ 10 are shown)
GI% K-562 (K-562): – (Only GI% ≥ 10 are shown)
GI% MOLT-4 (MOLT-4): – (Only GI% ≥ 10 are shown)
GI% RPMI-8226 (RPMI-8226): 12%
GI% SR (SR): 15%
GI% A549/ATCC (A549/ATCC): – (Only GI% ≥ 10 are shown)
GI% EKVX (EKVX): – (Only GI% ≥ 10 are shown)
GI% HOP-62 (HOP-62): – (Only GI% ≥ 10 are shown)
GI% HOP-92 (HOP-92): 10%
GI% NCI-H226 (NCI-H226): – (Only GI% ≥ 10 are shown)
GI% NCI-H23 (NCI-H23): – (Only GI% ≥ 10 are shown)
GI% NCI-H322M (NCI-H322M): – (Only GI% ≥ 10 are shown)
GI% NCI-H460 (NCI-H460): – (Only GI% ≥ 10 are shown)
GI% NCI-H522 (NCI-H522): – (Only GI% ≥ 10 are shown)
GI% COLO 205 (COLO 205): – (Only GI% ≥ 10 are shown)
GI% HCC-2998 (HCC-2998): – (Only GI% ≥ 10 are shown)
GI% HCT-116 (HCT-116): – (Only GI% ≥ 10 are shown)
GI% HCT-15 (HCT-15): – (Only GI% ≥ 10 are shown)
GI% HT29 (HT29): – (Only GI% ≥ 10 are shown)
GI% KM12 (KM12): – (Only GI% ≥ 10 are shown)
GI% SW-620 (SW-620): – (Only GI% ≥ 10 are shown)
GI% SF-268 (SF-268): – (Only GI% ≥ 10 are shown)
GI% SF-295 (SF-295): – (Only GI% ≥ 10 are shown)
GI% SF-539 (SF-539): – (Only GI% ≥ 10 are shown)
GI% SNB-19 (SNB-19): – (Only GI% ≥ 10 are shown)
GI% SNB-75 (SNB-75): 27%
GI% U251 (U251): – (Only GI% ≥ 10 are shown)
GI% LOX IMVI (LOX IMVI): – (Only GI% ≥ 10 are shown)
GI% MALME-3M (MALME-3M): – (Only GI% ≥ 10 are shown)
GI% M14 (M14): – (Only GI% ≥ 10 are shown)
GI% MDA-MB-435 (MDA-MB-435): – (Only GI% ≥ 10 are shown)
GI% SK-MEL-2 (SK-MEL-2): – (Only GI% ≥ 10 are shown)
GI% SK-MEL-28 (SK-MEL-28): – (Only GI% ≥ 10 are shown)
GI% SK-MEL-5 (SK-MEL-5): – (Only GI% ≥ 10 are shown)
GI% UACC-257 (UACC-257): – (Only GI% ≥ 10 are shown)
GI% UACC-62 (UACC-62): – (Only GI% ≥ 10 are shown)
GI% IGROV1 (IGROV1): – (Only GI% ≥ 10 are shown)
GI% OVCAR-3 (OVCAR-3): – (Only GI% ≥ 10 are shown)
GI% OVCAR-4 (OVCAR-4): – (Only GI% ≥ 10 are shown)
GI% OVCAR-5 (OVCAR-5): – (Only GI% ≥ 10 are shown)
GI% OVCAR-8 (OVCAR-8): – (Only GI% ≥ 10 are shown)
GI% NCI/ADR-RES (NCI/ADR-RES): – (Only GI% ≥ 10 are shown)
GI% SK-OV-3 (SK-OV-3): – (Only GI% ≥ 10 are shown)
GI% 786-0 (786-0): – (Only GI% ≥ 10 are shown)
GI% A498 (A498): – (Only GI% ≥ 10 are shown)
GI% ACHN (ACHN): – (Only GI% ≥ 10 are shown)
GI% CAKI-1 (CAKI-1): 15%
GI% RXF 393 (RXF 393): – (Only GI% ≥ 10 are shown)
GI% SN12C (SN12C): – (Only GI% ≥ 10 are shown)
GI% TK-10 (TK-10): – (Only GI% ≥ 10 are shown)
GI% UO-31 (UO-31): – (Only GI% ≥ 10 are shown)
GI% PC-3 (PC-3): 18%
GI% DU-145 (DU-145): – (Only GI% ≥ 10 are shown)
GI% MCF7 (MCF7): 13%
GI% MDA-MB-231 (MDA-MB-231): – (Only GI% ≥ 10 are shown)
GI% HS578T (HS578T): – (Only GI% ≥ 10 are shown)
GI% BT-549 (BT-549): – (Only GI% ≥ 10 are shown)
GI% T-47D (T-47D): 12%
GI% MDA-MB-468 (MDA-MB-468): – (Only GI% ≥ 10 are shown)
Mean GI% (NCI 60 cancer cell lines): 0%
melting point: 157 to 159 °C
% activity index, S. aureus (Staphylococcus aureus): – (Values below 25 are of limited value and not shown as they refer either to inactive or non-diffusing compounds)
% activity index, B. subtilis (Bacillus subtilis): – (Values below 25 are of limited value and not shown as they refer either to inactive or non-diffusing compounds)
% activity index, E. coli (Escherichia coli): – (Values below 25 are of limited value and not shown as they refer either to inactive or non-diffusing compounds)
% activity index, P. aeruginosa (Pseudomonas aeruginosa): – (Values below 25 are of limited value and not shown as they refer either to inactive or non-diffusing compounds)
% activity index, C. albicans (Candida albicans): – (Values below 25 are of limited value and not shown as they refer either to inactive or non-diffusing compounds)
zone of inhibition at 1000 µg/mL (Aspergillus flavus; Aspergillus flavus, 24 h, read-out: Diameter of inhibition zone, A. flavus): 7 mm
% activity index, A. flavus (Aspergillus flavus; relative to clotrimazole): 28%
